Where a SMILES comes first, the peptide text is derived from it.
system: P. falciparum 3D7 growth, pLDH absorbance; test: P. falciparum 3D7 growth inhibition, dose response, strain 3D7 (AID 2305)

| SMILES | IC50 [nM] |
| --- | --- |
| CN(Cc1ccc(-c2ccc(C(F)(F)F)cc2)cc1)C(=O)Cn1c(CCc2cccc(F)c2F)cc(=O)c2ccc(OCC3CCCN3C)cc21 (centres undefined) | 1070 |
| COc1ccc(NC(=O)c2ccc3[nH]c(-c4ccc(Cl)cc4)cc3c2)cc1OCCN(C)C | 810 |
| CC(=O)Nc1cccc(CNCc2ccc(-c3cnc(N4CCCC(c5ccccc5)C4)nc3)cc2)c1 (centres undefined) | 1190 |
| CCOc1cc(C)ccc1C1CCN(CCN2CCC(CNC(=O)c3ccc(-c4ccc(C(F)(F)F)cc4)cc3)CC2)CC1 | 700 |
| Cc1cccc2[nH]c(-c3cccc(-c4cccc(C(=O)NCc5nccn5C)c4)c3)nc12 | 530 |
| O=C(NCCN1CCC(c2ccncc2)CC1)c1ccc(Nc2nccc(Nc3ccc(Oc4ccccc4)cc3)n2)cc1 | 720 |
| Cc1ccc2nc(C)cc(Nc3ccccc3O)c2c1 | 790 |
| Cn1nc(-c2cccc(CNC3CCc4ccccc43)c2)c2cnc(NC3CCCC3)nc21 (centres undefined) | 860 |
| COc1cc2c(cc1OCCN1CCC(N3CCCC3)CC1)N(C(=O)/C=C/c1ccccc1Cl)CC2 | 660 |
| Cc1cc(N[C@@H](Cc2ccccc2)C(=O)NCCOc2ccccc2)nc(NCc2ccccc2C)n1 | 710 |
| CCc1ccc(C2CCN(CCCCNC(=O)c3ccc(NC(=O)c4ccc(Cl)cc4)cc3)CC2)c(OCC(=O)OC)c1 | 1030 |
| Brc1cc(CNCCCNc2nc3ccccc3[nH]2)sc1Br | 220 |
| Cc1noc(C)c1-c1ccc2c(Nc3cccc4c3-c3ccccc3C4=O)c(C(=O)NCc3ccccc3I)cnc2c1 | 630 |
| CCCS(=O)(=O)c1nc(S(=O)(=O)c2ccc(Cl)cc2)c(N2CCCCC2)s1 | 1290 |
| Cc1[nH]c(C)c(-c2ccc(Oc3ccc(Cl)cc3)cc2)c(=O)c1Br | 590 |
| CCCCCCn1c2c(c(=N)c3c1CCC3)CCCC2 | 290 |
| CN(C(=O)/C=C/c1cc(C(F)(F)F)ccc1F)C1CCN(CCCCCNC(=O)/C=C/c2ccc(Cl)c(Cl)c2)C1 (centres undefined) | 1090 |
| CS(=O)(=O)CCNCc1cccc(-c2ccc3c(Nc4cc(O)c(Cl)cc4F)ccnc3c2)c1 | 250 |
| O=C(Nc1ccnc(N2C[C@H]3C[C@@H]2CN3Cc2cccc(O)c2)c1)c1ccc(F)cc1 | 1240 |
| CC(=O)Nc1ccc(CN2CCc3ccc(NS(=O)(=O)c4cccc(OCc5ccc(Cl)cc5)c4)cc3CC2)s1 | 910 |
| Nc1cc(-c2ccc3ccccc3c2)nc2ccccc12 | 700 |
| CN(CCc1ccccn1)c1cccc2c1nc(-c1cccnc1)n2CCNCc1ccccc1 | 1060 |
| NC1=NC(c2ccccc2)(c2ccccc2)C(=O)N1C1CCCCC1 | 660 |
| N#Cc1cccc(COC(=O)C2=C(COc3ccccc3Cl)NC(=O)NC2c2c[nH]c3cnccc23)c1 (centres undefined) | 790 |

| SMILES | IC50 [nM] |
| --- | --- |
| O=C(NCc1cccc2ccccc12)C(c1cc2ccccc2o1)N1CCN(C(c2ccccc2)c2ccccc2)CC1 (centres undefined) | 670 |
| O=S(=O)(Nc1ccc(CCN2CCC(N3CCCCC3)CC2)cc1)c1cccc(C(F)(F)F)c1 | 700 |
| O=C(Nc1ccc(-c2ccccc2)cc1)Nc1cccc(Cn2ncc(N3CCNCC3)c(Cl)c2=O)c1 | 460 |
| COc1ccc2nccc([C@@H](O)CN3CCC(NC(=O)/C=C/c4ccc(Cl)c(C(F)(F)F)c4)CC3)c2c1 | 290 |
| CO/C(=C/C=C/c1cc2cc(Cl)c(Cl)cc2[nH]1)C(=O)NC1CC(C)(C)N(C)C(C)(C)C1 | 780 |
| O=C(Nc1cccc(-c2nn3ccccc3c2-c2ccnc(Nc3ccc(C(=O)N4CCOCC4)cc3)n2)c1)c1c(F)cccc1F | 380 |
| CN(C)CCCOc1ccccc1CN1CC[C@H](NC(=O)c2ccc(Cl)c(Cl)c2)C1 | 1110 |
| NC(=O)c1cccc(CNCc2ccc(-c3cccc(-c4nc5ccccc5[nH]4)c3)cc2)c1 | 590 |
| O=C(NCCCCN1CCC(c2ccc3c(c2OCc2ccccn2)CCCC3)CC1)c1ccc(NC(=O)c2ccc(Cl)cc2)cc1 | 800 |
| Cc1cc(N)c2cc(NC(=O)c3cccc4ccccc34)ccc2n1 | 840 |
| COCC(=O)N(Cc1ccccc1-c1ccc(CNCCc2ccccc2)cc1)C1CCN(Cc2ccccc2)CC1 | 890 |
| Fc1cc(CN2CCCC2)ccc1OCCCN1CCN(c2cccc(Cl)c2Cl)CC1 | 1040 |
| COc1cccc(-c2ccc(C(=O)NCC3CCCN(Cc4cccc(C(F)(F)F)c4)C3)s2)c1 (centres undefined) | 1140 |
| CC(C)(C)c1ccc(CNC(=O)c2cc(CNC3CCNC3)ccc2O)cc1 (centres undefined) | 800 |
| C=CCn1c(=N)n(CC(O)c2ccc(Cl)c(Cl)c2)c2ccccc21 (centres undefined) | 340 |
| Clc1ccc(CNCC2CCN(CC3CCCCC3)CC2)cc1Cl | 1000 |
| COc1ccc(CN2CCC(NCc3ccc(C(F)(F)F)cc3)CC2)cc1 | 920 |
| O=c1cc(NCCCNCc2ccccc2-c2ccccc2)[nH]c2ccccc12 | 980 |
| COc1ccc(Cc2cnc3nc(N)nc(N)c3c2C)cc1 | 30 |
| c1cc(-c2nc3ccccc3[nH]2)nc(-c2nc3ccccc3[nH]2)c1 | 1120 |
| O=C(Nc1ccc(N2CCC(Nc3ccccn3)CC2)cc1)c1cnc(Cl)c(Cl)c1 | 1190 |
| CCOC(=O)c1ccc(NC(=O)N[C@@H](Cc2ccccc2)C(=O)NC2CCN(Cc3ccc(OCCCN(C)C)cc3)C2)cc1 (some centres undefined) | 700 |
| O=S(=O)(NC1CCC(CN2CCC(c3c[nH]c4ccccc34)CC2)CC1)c1ccc(Cl)c(Cl)c1 (centres undefined) | 820 |
| O=S(=O)(c1cc(Cl)c(Cl)cc1Cl)N1CCCCC(c2ccc(C(F)(F)F)cc2)=N1 | 200 |

| SMILES | IC50 [nM] |
| --- | --- |
| CC(C)(CN)c1nc(-c2ccc(Br)c(O)c2)c(-c2ccncc2)[nH]1 | 970 |
| O=C(Cc1cccc2ccccc12)NC1CCN(c2ccnc3cc(Cl)ccc23)C1 (centres undefined) | 250 |
| C=C[C@]1(C)C[C@@H](OC(=O)NC(=O)CCCS(=O)(=O)c2nnc(C)s2)[C@]2(C)[C@H](C)CC[C@]3(CCC(=O)[C@H]32)[C@@H](C)[C@@H]1O | 30 |
| CCOC(=O)C1CCN(CCCNC(=O)/C(=C/C=C/c2cc3cc(Cl)c(Cl)cc3[nH]2)OC)CC1 | 1040 |
| Cc1[nH]c2ccccc2c1C1=CCN(CCN2CCCc3c(Br)cccc3C2=O)CC1 | 660 |
| CC(=O)Nc1ccc(C(=O)Nc2cccc(-c3cccc(-c4nc5ccc(C(F)(F)F)cc5[nH]4)c3)c2)cn1 | 70 |
| Clc1ccc(Nc2nc3nonc3nc2Nc2ccc(Cl)c(Cl)c2)cc1 | 650 |
| CN(Cc1ccccc1)C(=O)CCNS(=O)(=O)c1cc(Br)cnc1N | 1130 |
| CCN1C(=O)C(CC(=O)Nc2cccc(Cl)c2)N(Cc2ccc(OC)c(OC)c2)C1=S (centres undefined) | 610 |
| CCN(CCO)CCc1cccc(Nc2nccc(-c3c(-c4ccc(NC(=O)C(C)(C)C)cc4)nn4ccccc34)n2)c1 | 710 |
| CC1CN(Cc2csc(Nc3ccccc3)n2)CC(C)O1 (centres undefined) | 1020 |
| O=c1cc(NCCCCNCc2cccc(Br)c2)[nH]c2ccccc12 | 730 |
| O=C(NCCCCN1CCC(c2ccc(C(F)(F)F)cc2C(F)(F)F)CC1)c1ccc(NC(=O)c2ccc(Cl)cc2)cc1 | 610 |
| O=C(Cn1c(CCc2cccc(F)c2F)nc(=O)c2ccccc21)N(CCCN1CCCCC1)Cc1ccc(-c2ccc(C(F)(F)F)cc2)cc1 | 760 |
| Fc1ccc2cc(C=Cc3ccncc3)[nH]c2c1 | 620 |
| Cc1ccc(C)c(Cn2c(N3CCC(C(=O)NCc4cccs4)CC3)nc3ccccc32)c1 | 940 |
| COc1ccc(N2CCN(c3nc(Nc4ccc(NC(C)=O)cc4)nc(N4CCCC4)n3)CC2)cc1 | 980 |
| CC1Cc2ccccc2N1S(=O)(=O)c1cc(OCC(F)(F)F)ccc1OCC(F)(F)F (centres undefined) | 650 |
| O=C(C=Cc1ccc(Cl)c(Cl)c1)NCCCCCN1CCC(CCCNS(=O)(=O)c2cccc(C(F)(F)F)c2)CC1 | 480 |
| COc1ccc2nc3cc(Cl)ccc3c(NCCN(C)C)c2c1 | 190 |
| COc1cc2nc(Nc3ccc4c(cnn4Cc4ccccc4)c3)nc(Nc3ccc4c(cnn4Cc4ccccc4)c3)c2cc1OC | 190 |
| O=C(NCC(=O)N1CCC[C@H]1C(=O)O)[C@@H](Cc1ccccc1)NC(=O)[C@@H]1CCCN1C(=O)CCCc1ccc(O)cc1 (HELM PEPTIDE1{[O=C(CCCc1ccc(O)cc1)[*:2]].P.[dF].G.P}$$$$V2.0) | 1050 |
| O=C(O[C@@H]1CN[C@H](C#Cc2cc3c(Nc4ccc5c(cnn5Cc5ccccc5)c4)ncnc3s2)C1)N1CCCC1 | 420 |
| O=C(NCCCCCCNCc1ccc(-c2ccccc2)cc1)Nc1ccc(Cl)c(Cl)c1 | 960 |

| SMILES | IC50 [nM] |
| --- | --- |
| CCC(C)NS(=O)(=O)c1ccc2nc(Nc3ccc(C)c(Cl)c3)n([C@H](C)C(C)(C)C)c2c1 (some centres undefined) | 380 |
| CN1CCN(CCCN(Cc2cccc(-c3cccc(CNCc4ccc5c(c4)OCO5)c3)c2)C(=O)CCC2CCCC2)CC1 | 950 |
| Nc1c(Cl)cc(C(O)CNCCCCCCOCCc2ccc(O)cc2)cc1Cl (centres undefined) | 730 |
| Nc1nc(Nc2ccc(Cl)cc2)nc2ccccc12 | 730 |
| CN(C)c1ccc(C=CC(=O)NC(=O)c2ccccc2O)cc1 | 230 |
| NC1=NC(c2ccccc2)(c2ccccc2)C(=O)N1CCOc1ccccc1 | 840 |
| COc1ccc2nccc(N3CCC(CCNCc4cc5c(cn4)OCCO5)CC3)c2n1 | 220 |
| Cc1ccc(C)c(S(=O)(=O)NCC2CCN(Cc3ccc(O)cc3)CC2)c1 | 980 |
| CCc1ccc(CN2CCC(CNC(=O)c3cc(-c4ccccc4Cl)cs3)C2)cc1 (centres undefined) | 1430 |
| Cc1ccc(C(=O)Nc2ccc(Nc3ccnc4cc(-c5nccs5)ccc34)cc2O)cc1 | 50 |
| Oc1ccccc1Nc1nc(NCc2ccco2)c2ccccc2n1 | 640 |
| O=C(/C=C/c1ccc(Cl)c(Cl)c1)NCCCCCN1CCCC(CCCNC(=O)Nc2ccc(C(F)(F)F)cc2)C1 (centres undefined) | 530 |
| O=C(Nc1cc(C(F)(F)F)cc(C(F)(F)F)c1)NC(CCCN1CCC2(CC1)OCc1ccccc12)c1ccc(Cl)c(Cl)c1 (centres undefined) | 820 |
| O=C(Nc1ccc(C(F)(F)F)cc1)c1cccc(S(=O)(=O)NC2CCN(CC3CCCCC3)C2)c1 (centres undefined) | 690 |
| CC=CC1CCNC(C(O)c2ccnc3ccc(OC)cc23)C1 (centres undefined) | 1090 |
| O=C(NCCCCN1CCN(CC=Cc2ccccc2)CC1)c1ccc(NC(=O)c2cc(Cl)cc(Cl)c2)cc1 | 210 |
| CCC(C)NC(=O)Nc1ccc(-c2cccc(-c3nc4c(C)cccc4[nH]3)c2)cc1 (centres undefined) | 190 |
| CCCCN(CCCC)C(=Nc1cccc(Cl)c1Cl)Nc1ccc(C#N)cc1O | 850 |
| COc1ccc2nccc([C@@H](O)CN3CCC(NC(=O)c4ccc(Oc5ccccc5)cc4)CC3)c2c1 | 1380 |
| CNC(=O)c1ccccc1Nc1nc(Nc2ccc(CCN3CCN(C)CC3)cc2)ncc1Cl | 650 |
| COc1cc(-c2nc3ccc(N4CCN(C)CC4)cc3[nH]2)cc(OC)c1OC | 1270 |
| O=C1OC(c2ccccc2)(c2ccccn2)CN1C1CCN(Cc2cccn2-c2ccc(Cl)cc2)CC1 (centres undefined) | 470 |

Source: PubChem BioAssay AID2305 (GlaxoSmithKline (GSK), 2010)
